This note sets out measurements from patent publication US20250101001A1 (priority 2021, published 2025).

The format of assay [1] is in vivo. Conditions: mice. As to the method:
Head twitch response (HTR) experiments. C57BL/6J Mice (9-10 weeks old) are housed following an IACUC approved protocol. The mice are habituated in the test cage for at least 30 min, injected intraperitoneally with compound (injection volume 5 ml/kg), returned to the empty test cage, and filmed for 20 minutes. Each video is scored for the number of head-twitches by a trained observer blinded to treatment condition.

Assay [2] concerns 5HT2A sensor. The assay is classed as cell-based.
Assay [3] relates to 5HT2A sensor. The format is cell-based. The source holds these as a separate data set.
Assay [4] concerns the target T1, 5-HT2A (Homo sapiens, UniProt P28223). In words: Serotonin 5-HT2A in vitro cellular IPOne agonism assay. The format is cell-based. On the set-up: host or cells: CHO-K1. As to conditions: CHO-K1 cells, IPOne HTRF, agonist mode. The procedure: Serotonin 5-HT2A In Vitro Cellular IPOne Agonism Assay. The 5-HT2A IPOne HTRF assay was performed at Epics Therapeutics S.A. (Belgium, FAST-0505I) using conventional methods. Briefly, CHO-K1 cells expressing human recombinant 5-HT2A receptor grown to mid-log phase in culture media without antibiotics were detached with PBS-EDTA, centrifuged, and resuspended in medium without antibiotics buffer. 20,000 cells are distributed in a 96 well plate and incubated overnight at 37° C. with 5% Co2.
For agonist testing, the medium was removed and […] of assay buffer plus 20 μl of test compound or reference agonist were added in each well. The plate was incubated for 60 min. at 37° C. with 5% CO2.
(§1) After addition of the lysis buffer containing IP1-d2 and anti-IP1 cryptate detection reagents, plates were incubated 1-hour at room temperature, and fluorescence ratios were measured according to the manufacturer specification, with the HTRF kit.
On the technique in general: In TR-FRET formats the signal depends on donor and acceptor labels being close together.

The target in assay [5] is T1, 5-HT2A. Nature of the assay: Serotonin 5-HT2A in vitro cellular IPOne antagonism assay. The format is cell-based. On the set-up: host or cells: CHO-K1. As to conditions: CHO-K1 cells, IPOne HTRF, reference agonist a-Me-5HT. The procedure: Serotonin 5-HT2A and 5-HT2C In Vitro Cellular IPOne Antagonism Assay. The 5-HT2A and 5-HT2C IPOne HTRF assay was performed at Epics Therapeutics S.A. (Belgium, FAST-0505I) in antagonism mode using conventional methods. Briefly, CHO-K1 cells expressing human recombinant 5-HT2A or 5-HT2C receptor grown to mid-log phase in culture media without antibiotics were detached with PBS-EDTA, centrifuged, and resuspended in medium without antibiotics buffer. 20,000 cells were distributed in a 96 well plate and incubated overnight at 37° C. with 5% C02.
For antagonist testing, a reference agonist a-Me-5HT was added and fluorescence signal monitored for several minutes, followed by addition of 20 μlof assay buffer plus 20 μl of test compound or reference antagonist ketanserin, in each well. The plate was incubated for 60 min. at 37° C. with 5% CO2.
as §1

The target of assay [6] is T1, 5-HT2A. In words: Serotonin 5-HT2A in vitro radioligand binding competition assay ([3H]-DOI). As to conditions: [3H]-DOI competition, membrane extracts. The arrangement: purchased Epics Therapeutics S. A. (Belgium) FAST-0505B. As to the method:
Serotonin 5-HT2A In Vitro Radioligand Binding Competition Assay. The 5-HT2A radioligand binding competition assay was performed at Epics Therapeutics S. A. (Belgium, FAST-0505B) using conventional methods. Briefly, competition binding was performed in duplicate in the wells of a 96 well plate (Master Block, Greiner, 786201) containing binding buffer (optimized for each receptor), membrane extracts (amount of protein/well optimized for each receptor), radiotracer [^3H]-DOI (final concentration optimized for each receptor) and test compound. Nonspecific binding was determined by co-incubation with 200-fold excess of cold competitor. The samples were incubated in a final volume of 0.1 ml at a temperature and for a duration optimized for each receptor and then filtered over filter plates. Filters were washed six times with 0.5 ml of ice-cold washing buffer (optimized for each receptor) and 50 μl of Microscint 20 (Packard) were added in each well. The plates were incubated 15 min on an orbital shaker and then counted with a TopCount™ for 1 min/well.

T1 sequence (P28223 whole entry): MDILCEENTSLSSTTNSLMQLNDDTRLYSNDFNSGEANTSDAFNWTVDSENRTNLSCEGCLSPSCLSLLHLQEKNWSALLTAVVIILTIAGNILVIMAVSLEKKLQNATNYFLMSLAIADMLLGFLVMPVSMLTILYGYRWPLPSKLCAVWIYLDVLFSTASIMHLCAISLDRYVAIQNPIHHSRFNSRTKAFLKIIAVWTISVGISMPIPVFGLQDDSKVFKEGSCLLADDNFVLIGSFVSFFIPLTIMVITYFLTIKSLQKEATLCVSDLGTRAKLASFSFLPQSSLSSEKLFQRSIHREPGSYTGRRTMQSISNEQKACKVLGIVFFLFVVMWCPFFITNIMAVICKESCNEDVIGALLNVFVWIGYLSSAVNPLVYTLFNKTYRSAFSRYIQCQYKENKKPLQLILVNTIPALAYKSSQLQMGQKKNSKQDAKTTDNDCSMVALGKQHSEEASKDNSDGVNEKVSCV

Consider 5-MeO-DMT [Compound 5-MeO-DMT], for which the “head-twitch response (HTR)” value in assay [1] is given as “produces a robust, dose-dependent head-twitch response”. Moreover, the “activation of the 5HT2A sensor assay in agonist mode” value (from here on “activation of the 5HT2A sensor assay”) in the assay with 5HT2A sensor [2] is “activate the 5HT2A sensor assay in agonist mode”.

As for 6-F-DET [Compound 6-F-DET], in the assay on 5HT2A sensor [2], the “activation of the 5HT2A sensor assay” value is on record as “do not activate the 5HT2A sensor assay in agonist mode”. In addition, the “competition with 5-HT in the 5HT2A sensor assay in antagonist mode” value (shortened to “competition with 5-HT”) in the assay on 5HT2A sensor [3] is “can compete with 5HT binding to 5HT2A”.

For 6-MeO-DMT [Compound 6-MeO-DMT], the “head-twitch response (HTR)” value in assay [1] is given as “does not produce a HTR”. For the same molecule, the “activation of the 5HT2A sensor assay” value in the assay with 5HT2A sensor [2] is “do not activate the 5HT2A sensor assay in agonist mode”. Besides, in the assay on 5HT2A sensor [3], the “competition with 5-HT” value is reported as “compete off 5-HT”.

Regarding `COc1cc(CC(C)N)c(OC)cc1I.Cl` (racemic) [DOI], the “activation of the 5HT2A sensor assay” value with 5HT2A sensor [2] is listed as “activate the 5HT2A sensor assay in agonist mode”.

`CN1CC(n2ccc3ccc(F)cc32)C1` [Compound 33, 6-fluoro-1-(1-methylazetidin-3-yl)-1H-indole]: on 5-HT2A [4], the EC50 (as a rule, the concentration at which the effect is half-maximal) was above 10 µM. In addition, the IC50 at 5-HT2A [5] and on 5-HT2A [6] was 0.101 to 1 µM throughout.

For the molecule `CN1CC(n2ccc3cccc(F)c32)C1` [Compound 34, 7-fluoro-1-(1-methylazetidin-3-yl)-1H-indole], the EC50 on 5-HT2A [4] is above 10 µM. The IC50 (commonly the concentration at which inhibition is half-maximal) on 5-HT2A [5] fell in the range of 1 to 10 µM; at 5-HT2A [6], 0.101 to 1 µM.

At 5-HT2A [4], `Cc1ccc2c(ccn2C2CN(C)C2)c1` [Compound 35, 5-methyl-1-(1-methylazetidin-3-yl)-1H-indole] registered an EC50 above 10 µM. In addition, the IC50 on 5-HT2A [5] and at 5-HT2A [6] was 1 to 10 µM throughout.

For `CN1CC(n2ccc3cc(Cl)ccc32)C1` [Compound 36, 5-chloro-1-(1-methylazetidin-3-yl)-1H-indole], at 5-HT2A [4], the EC50 is above 10 µM. In addition, the IC50 at 5-HT2A [5] and on 5-HT2A [6] was above 10 µM in each case.

`CN1CC(n2ccc3cc(C#N)ccc32)C1` [Compound 37, 1-(1-methylazetidin-3-yl)-1H-indole-5-carbonitrile] yielded an EC50 on 5-HT2A [4] above 10 µM. The IC50 at 5-HT2A [5] and on 5-HT2A [6] was above 10 µM each time.

In the case of `CN(C)CCc1c[nH]c2ccccc12` [DMT, N,N-dimethyltryptamine], the “activation of the 5HT2A sensor assay” value with 5HT2A sensor [2] is reported as “activate the 5HT2A sensor assay in agonist mode”.

For the molecule `O=C(c1ccc(F)cc1)C1CCN(CCn2c(=O)[nH]c3ccccc3c2=O)CC1` [Ketanserin], the “activation of the 5HT2A sensor assay” value with 5HT2A sensor [2] is given as “do not activate the 5HT2A sensor assay in agonist mode”. Besides, the “competition with 5-HT” value with 5HT2A sensor [3] is recorded as “can compete with 5HT binding to 5HT2A”.

Consider BOL148, for which the “activation of the 5HT2A sensor assay” value with 5HT2A sensor [2] is recorded as “do not activate the 5HT2A sensor assay in agonist mode”. Moreover, the “competition with 5-HT” value with 5HT2A sensor [3] is given as “can compete with 5HT binding to 5HT2A”.

On to L-MDMA, for which the “activation of the 5HT2A sensor assay” value with 5HT2A sensor [2] was “do not activate the 5HT2A sensor assay in agonist mode”.

On to R-MDMA, for which the “activation of the 5HT2A sensor assay” value in the assay with 5HT2A sensor [2] is listed as “do not activate the 5HT2A sensor assay in agonist mode”.
